Experimental findings from patent US20250230153A1, “2,3-DIHYDROBENZO[B][1,4]DIOXIN-6-YL CONTAINING COMPOUNDS USEFUL AS IMMUNOMODULATORS” (BRISTOL-MYERS SQUIBB COMPANY, priority 2021, published 2025) are described below.

The target of the test is PD-1/PD-L1 (Homo sapiens (Human), UniProt Q9NZQ7). The experiment in a line: PD-1/PD-L1 Homogenous Time-Resolved Fluorescence (HTRF) binding assay. Particulars: PD-1-Ig (20 nM final)/PD-L1-His (10 nM final) binding assay. The procedure, abridged: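 Compounds pre-incubated 15 min with human PD-L1(18-239)-His (10 nM final), then 15 min with PD-1(25-167)-Ig (20 nM final), in dPBS with 0.1% BSA and 0.05% Tween-20. Detection with Eu-cryptate anti-Ig (1 nM) and APC anti-His (20 nM) after 30 min equilibration; 665/620 nm ratio read.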
Chain of PD-1/PD-L1 (Q9NZQ7 18-239): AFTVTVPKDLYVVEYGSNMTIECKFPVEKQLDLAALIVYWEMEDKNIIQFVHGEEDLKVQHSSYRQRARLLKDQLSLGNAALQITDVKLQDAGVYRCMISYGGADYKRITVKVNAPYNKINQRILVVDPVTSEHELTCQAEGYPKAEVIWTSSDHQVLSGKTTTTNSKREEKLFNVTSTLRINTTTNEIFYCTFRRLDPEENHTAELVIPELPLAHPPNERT
(TR-FRET usually uses a lanthanide donor and a delayed reading to cut background.)
One may read the IC50 as the concentration that gives 50% inhibition. Read a high IC50 as a need for much substance. In turn, `Cc1c(COc2cc(OCCN3CCCC(O)(C(F)(F)F)C3)c(CN[C@](C)(CO)C(=O)O)cc2Cl)cccc1-c1ccc2c(c1)OCCO2` (stereo partly drawn) [Example 1057, (2R)-2-((5-Chloro-4-((3-(2,3-dihydrobenzo[b][1,4]dioxin-6-yl)-2-methylbenzyl)oxy)-2-(2-(3-hydroxy-3-(trifluoromethyl)piperidin-1-yl)ethoxy)benzyl)amino)-3-hydroxy-2-methylpropanoic acid] showed a concentration for half-maximal inhibition (IC50) of 6.2 nM.

Molecule `Cc1c(COc2cc(OCCN3CCOCC3)c(CN[C@](C)(CO)C(=O)O)cc2Cl)cccc1-c1ccc2c(c1)OCCO2` [Example 1037, (R)-2-((5-Chloro-4-((3-(2,3-dihydrobenzo[b][1,4]dioxin-6-yl)-2-methylbenzyl)oxy)-2-(2-morpholinoethoxy)benzyl)amino)-3-hydroxy-2-methylpropanoic acid] gave an IC50 of 1.8 nM. For `Cc1c(COc2cc(OCCCN(C)C)c(CN[C@@H](CO)C(=O)O)cc2Cl)cccc1-c1ccc2c(c1)OCCO2` [Example 2002, (S)-2-((5-chloro-4-((3-(2,3-dihydrobenzo[b][1,4]dioxin-6-yl)-2-methylbenzyl)oxy)-2-(3-(dimethylamino)propoxy)benzyl)amino)-3-hydroxypropanoic acid] the value was 6.5 nM. `Cc1c(COc2cc(OCCCC(F)(F)F)c(CN[C@](C)(CO)C(=O)O)cc2Cl)cccc1-c1ccc2c(c1)OCCO2` [Example 1029, (R)-2-((5-Chloro-4-((3-(2,3-dihydrobenzo[b][1,4]dioxin-6-yl)-2-methylbenzyl)oxy)-2-(4,4,4-trifluorobutoxy)benzyl)amino)-3-hydroxy-2-methylpropanoic acid] showed an IC50 of 1.2 nM. Molecule `Cc1cnc(COc2cc(OCc3cccc(-c4ccc5c(c4)OCCO5)c3C)c(Cl)cc2CN[C@@](C)(CO)C(=O)O)cn1` [Example 1002, (S)-2-((5-Chloro-4-((3-(2,3-dihydrobenzo[b][1,4]dioxin-6-yl)-2-methylbenzyl)oxy)-2-((5-methylpyrazin-2-yl)methoxy)benzyl)amino)-3-hydroxy-2-methylpropanoic acid] yielded an IC50 of 6.8 nM. For `Cc1c(COc2cc(OCCN3CC[C@@H](O)C3)c(CN3CCCC[C@H]3C(=O)O)cc2Cl)cccc1-c1ccc2c(c1)OCCO2` [Example 1023, (S)-1-(5-Chloro-4-((3-(2,3-dihydrobenzo[b][1,4]dioxin-6-yl)-2-methylbenzyl)oxy)-2-(2-((R)-3-hydroxypyrrolidin-1-yl)ethoxy)benzyl)piperidine-2-carboxylic acid] the value was 4.6 nM; for `Cc1c(COc2cc(OCc3ccnc(NC(=O)N4CCOCC4)c3)c(CN[C@@](C)(CO)C(=O)O)cc2Cl)cccc1-c1ccc2c(c1)OCCO2` [Example 1004, (S)-2-((5-Chloro-4-((3-(2,3-dihydrobenzo[b][1,4]dioxin-6-yl)-2-methylbenzyl)oxy)-2-((2-(morpholine-4-carboxamido)pyridin-4-yl)methoxy)benzyl)amino)-3-hydroxy-2-methylpropanoic acid], 17.3 nM. Next, `Cc1c(COc2cc(OCCN3CCS(=O)(=O)CC3)c(CN3CCCC[C@H]3C(=O)O)cc2Cl)cccc1-c1ccc2c(c1)OCCO2` [Example 1060, (S)-1-(5-chloro-4-((3-(2,3-dihydrobenzo[b][1,4]dioxin-6-yl)-2-methylbenzyl)oxy)-2-(2-(1,1-dioxidothiomorpholino)ethoxy)benzyl)piperidine-2-carboxylic acid]: 9.2 nM; `Cc1c(COc2cc(OCCCC(F)(F)F)c(CN3CCCC[C@H]3C(=O)O)cc2Cl)cccc1-c1ccc2c(c1)OCCO2` [Example 1028, (S)-1-(5-Chloro-4-((3-(2,3-dihydrobenzo[b][1,4]dioxin-6-yl)-2-methylbenzyl)oxy)-2-(4,4,4-trifluorobutoxy)benzyl)piperidine-2-carboxylic acid]: 1.8 nM.
